Results reported in patent US11453666B2, “Autotaxin inhibitory compounds” (Cancer Research Technology Limited, priority 2015, dated 2022).
Where two headings read alike, the source gives them in different places.

Biological target: human recombinant ATX (Homo sapiens, UniProt Q13822)
Experiment: Autotaxin (ATX) activity Quanta Red assay
Type: biochemical
Settings: read-out: Activity (ATX activity, Quanta Red assay; IC50)
In short: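 Recombinant human ATX reaction stopped after 2 h with Quanta Red stop solution; fluorescence read at […]. Controls with DMSO, with and without ATX; IC50 in duplicate.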

Row | SMILES | IC50 (human recombinant ATX 0.8 μg/mL, 2 hours at room temperature, IC50 determined in duplicate) | IC50
1 | C[C@H](OC(=O)NCc1nc2cccnc2n1Cc1ccc(F)cc1)c1ccc(F)cc1 [Example 164, [3-(4-Fluoro-benzyl)-3H-imidazo[4,5-b]pyridin-2-ylmethyl]-carbamic acid (S)-1-(4-fluoro-phenyl)-ethyl ester] | 957 nM | –
2 | COc1cccc([C@H](C)NC(=O)NCc2nc3cccnc3n2Cc2ccc(F)cc2)c1 [Example 165, 1-[3-(4-Fluoro-benzyl)-3H-imidazo[4,5-b]pyridin-2-ylmethyl]-3-[(S)-1-(3-methoxy-phenyl)-ethyl]-urea] | – | 514 nM
3 | C[C@H](NC(=O)OCc1nc2cccnc2n1Cc1ccc(F)cc1)c1ccc(F)cc1 [Example 166, [(S)-1-(4-fluoro-phenyl)-ethyl]-carbamic acid 3-(4-fluoro-benzyl)-3H-imidazo[4,5-b]pyridin-2-ylmethyl Ester] | – | 336 nM
4 | C[C@H](NC(=O)CCc1nc2cccnc2n1Cc1ccc(OC(F)(F)F)cc1)c1ccc(N2CCN(C)CC2)cc1 [Example 167, N—{(S)-1-[4-(4-methyl-piperazin-1-yl)-phenyl]-ethyl}-3-[3-(4-trifluoromethoxy-benzyl)-3H-imidazo[4,5-b]pyridin-2-yl]-propionamide] | – | 1 nM
5 | C[C@H](NC(=O)CCc1nc2cccnc2n1Cc1ccc(OC(F)(F)F)cc1)c1ccc(N2CCCNCC2)cc1 [Example 170, N-[(S)-1-(4-[1,4]Diazepan-1-yl-phenyl)-ethyl]-3-[3-(4-trifluoromethoxy-benzyl)-3H-imidazo[4,5-b]pyridin-2-yl]-propionamide] | – | 2 nM
6 | CC[C@H]1CN(c2ccc([C@H](C)NC(=O)CCc3nc4cccnc4n3Cc3ccc(OC(F)(F)F)cc3)cc2)CCN1 [Example 172, N-{(S)-1-[4-((S)-3-Ethyl-piperazin-1-yl)-phenyl]-ethyl}-3-[3-(4-trifluoromethoxy-benzyl)-3H-imidazo[4,5-b]pyridin-2-yl]-propionamide] | – | 2 nM
7 | C[C@H](NC(=O)CCc1nc2cccnc2n1Cc1ccc(OC(F)(F)F)cc1)c1ccc(NC2CCN(C)CC2)cc1 [Example 173, N-{(S)-1-[4-(1-Methyl-piperidin-4-ylamino)-phenyl]-ethyl}-3-[3-(4-trifluoromethoxy-benzyl)-3H-imidazo[4,5-b]pyridin-2-yl]-propionamide] | – | 3 nM
8 | C[C@@H]1CN(c2ccc([C@H](C)NC(=O)CCc3nc4cccnc4n3Cc3ccc(OC(F)(F)F)cc3)cc2)CCN1 [Example 174, N-{(S)-1-[4-((R)-3-Methyl-piperazin-1-yl)-phenyl]-ethyl}-3-[3-(4-trifluoromethoxy-benzyl)-3H-imidazo[4,5-b]pyridin-2-yl]-propionamide] | – | 2 nM
9 | C[C@H](NC(=O)CCc1nc2cccnc2n1Cc1ccc(OC(F)(F)F)cc1)c1ccc(N2CCN[C@@H](C)C2)cc1 [Example 176, N-{(S)-1-[4-((S)-3-Methyl-piperazin-1-yl)-phenyl]-ethyl}-3-[3-(4-trifluoromethoxy-benzyl)-3H-imidazo[4,5-b]pyridin-2-yl]-propionamide] | – | 3 nM
10 | C[C@H](NC(=O)CCc1nc2cccnc2n1Cc1ccc(F)cc1)c1ccc(N2CCCCCC2)cc1 [Example 178, N-[(S)-1-(4-Azepan-1-yl-phenyl)-ethyl]-3-[3-(4-fluoro-benzyl)-3H-imidazo[4,5-b]pyridin-2-yl]-propionamide] | – | 3 nM
11 | C[C@H](NC(=O)CCc1nc2cccnc2n1Cc1ccc(F)c(F)c1)c1ccc(N2CCCC2)cc1 [Example 183, 3-[3-(3,4-Difluoro-benzyl)-3H-imidazo[4,5-b]pyridin-2-yl]-N-[(S)-1-(4-pyrrolidin-1-yl-phenyl)-ethyl]-propionamide] | – | 10 nM
12 | C[C@H](NC(=O)CCc1nc2cccnc2n1Cc1ccc(F)c(F)c1)c1ccc(N2CCN[C@@H](C)C2)cc1 [Example 184, 3-[3-(3,4-Difluoro-benzyl)-3H-imidazo[4,5-b]pyridin-2-yl]-N-{(S)-1-[4-((S)-3-methyl-piperazin-1-yl)-phenyl]-ethyl}-propionamide] | – | 12 nM
13 | C[C@H](NC(=O)CCc1nc2cccnc2n1Cc1ccc(F)cc1)c1ccc(N2CCOCC2)cc1 [Example 185, 3-[3-(4-Fluoro-benzyl)-3H-imidazo[4,5-b]pyridin-2-yl]-N-[(S)-1-(4-morpholin-4-yl-phenyl)-ethyl]-propionamide] | – | 13 nM

Next, values leading:

Row | IC50 (human recombinant ATX 0.8 μg/mL, 2 hours at room temperature, IC50 determined in duplicate) | IC50 | SMILES
14 | – | 1 nM | C[C@H](NC(=O)CCc1nc2cccnc2n1Cc1ccc(OC(F)(F)F)cc1)c1ccc(N2CC[C@@H](N(C)C)C2)cc1 [Example 168, N-{(S)-1-[4-((R)-3-Dimethylamino-pyrrolidin-1-yl)-phenyl]-ethyl}-3-[3-(4-trifluoromethoxy-benzyl)-3H-imidazo[4,5-b]pyridin-2-yl]-propionamide]
15 | – | 1 nM | C[C@H](NC(=O)CCc1nc2cccnc2n1Cc1ccc(OC(F)(F)F)cc1)c1ccc(N2CC[C@H](N(C)C)C2)cc1 [Example 169, N-{(S)-1-[4-((S)-3-Dimethylamino-pyrrolidin-1-yl)-phenyl]-ethyl}-3-[3-(4-trifluoromethoxy-benzyl)-3H-imidazo[4,5-b]pyridin-2-yl]-propionamide]
16 | – | 2 nM | C[C@@H]1CN(c2ccc([C@H](C)NC(=O)CCc3nc4cccnc4n3Cc3ccc(OC(F)(F)F)cc3)cc2)C[C@H](C)N1 [Example 171, N-{(S)-1-[4-((cis)-3,5-Dimethyl-piperazin-1-yl)-phenyl]-ethyl}-3-[3-(4-trifluoromethoxy-benzyl)-3H-imidazo[4,5-b]pyridin-2-yl]-propionamide]
17 | – | 3 nM | C[C@H](NC(=O)CCc1nc2cccnc2n1Cc1ccc(OC(F)(F)F)cc1)c1ccc(N[C@H]2CCNC2)cc1 [Example 175, N-{(S)-1-[4-((S)-Pyrrolidin-3-ylamino)-phenyl]-ethyl}-3-[3-(4-trifluoromethoxy-benzyl)-3H-imidazo[4,5-b]pyridin-2-yl]-propionamide]
18 | – | 3 nM | C[C@H](NC(=O)CCc1nc2cccnc2n1Cc1ccc(F)c(F)c1)c1ccc(N2CCC(N(C)C)C2)cc1 (some centres unmarked) [Example 177]
19 | – | 5 nM | C[C@H](NC(=O)CCc1nc2cccnc2n1Cc1ccc(F)c(F)c1)c1ccc(N2CCNC(C(F)(F)F)C2)cc1 (stereo partly drawn) [Example 179, 3-[3-(3,4-Difluoro-benzyl)-3H-imidazo[4,5-b]pyridin-2-yl]-N-{(S)-1-[4-(3-trifluoromethyl-piperazin-1-yl)-phenyl]-ethyl}-propionamide]
20 | – | 6 nM | C[C@H](NC(=O)CCc1nc2cccnc2n1Cc1ccc(F)cc1)c1ccc(N2CCCC2)cc1 [Example 180, 3-[3-(4-Fluoro-benzyl)-3H-imidazo[4,5-b]pyridin-2-yl]-N-[(S)-1-(4-pyrrolidin-1-yl-phenyl)-ethyl]-propionamide]
21 | – | 7 nM | C[C@H](NC(=O)CCc1nc2cccnc2n1Cc1ccc(F)cc1)c1ccc(N2CCC(CO)CC2)cc1 [Example 181, 3-[3-(4-Fluoro-benzyl)-3H-imidazo[4,5-b]pyridin-2-yl]-N-{(S)-1-[4-(4-hydroxymethyl-piperidin-1-yl)-phenyl]-ethyl}-propionamide]
22 | – | 8 nM | C[C@H](NC(=O)CCc1nc2cccnc2n1Cc1ccc(F)c(F)c1)c1ccc(N2CCN(C)CC2)cc1 [Example 182]
23 | – | 13 nM | C[C@H](NC(=O)CCc1nc2cccnc2n1Cc1ccc(F)cc1)c1ccc(N2CCCCC2)cc1 [Example 186, 3-[3-(4-Fluoro-benzyl)-3H-imidazo[4,5-b]pyridin-2-yl]-N-[(S)-1-(4-piperidin-1-yl-phenyl)-ethyl]-propionamide]
